Measured values as given in ChEMBL document CHEMBL5034037, “Synthesis, Characterization, and Preclinical Evaluation of a Small-Molecule Prostate-Specific Membrane Antigen-Targeted Monomethyl Auristatin E Conjugate” (J Med Chem, 2021).
Values joined by “and” are separate entries in the source; they are usually repeats but may differ in a detail not shown here. Identical values can stand only once. *1 amine or outer side, *2 acyl side, *3 side chain or, on linkers, in order; H or OH if unused. Where a SMILES comes first, the peptide text is derived from it. [ ]: non-standard residue; d: D form. The star is where a group is joined. GluureaLys(ε-3-ClBenzyl) = O=C(O)CC[C@H](NC(=O)N[C@@H](CCCCN(Cc1cccc(Cl)c1)*)C(=O)O)C(=O)O; Dolaproine = CO[C@@H]([C@@H]1CCCN1)[C@@H](C)C(=O)O; Dil = CC[C@H](C)[C@H](NC)[C@@H](CC(=O)O)OC; X1 = O=C(CCCc1cn(CCCN[*:1])nn1)[*:2]; PABC = O=C(OCc1ccc(N[*:1])cc1)[*:2]; X2 = C[C@@H](N*)[C@@H](O)c1ccccc1; Cit = NC(=O)NCCC[C@H](N)C(=O)O; Suc = O=C(CCC(=O)[*:2])[*:1]; NMeV = CN[C@H](C(=O)O)C(C)C; Ahx = NCCCCCC(=O)O

How the values were obtained:
[1] = Acute toxicity in iv dosed Wistar rat assessed as median mortality dose; assay type: organism-based; settings: in vivo
[2] = Chronic toxicity in rat assessed as reduced volume of urine at […], iv administered once every 3 weeks for 3 months; assay type: organism-based; settings: in vivo, 504 h, dose lower 150 mg/kg
[3] = Toxicity in rabbit assessed as morphological changes in adrenal medulla at 81 to 122 microg/kg, iv; set-up: species or system Oryctolagus cuniculus; settings: in vivo, dose 81-122 µg/kg
[4] = Toxicity in rat assessed as morphological changes in cerebral membrane at 150 to 225 microg/kg, iv; settings: in vivo, dose 150-225 µg/kg
[5] = Toxicity in mouse xenografted with human 22Rv1 cells assessed as early fell at 0.6 mg/kg, ip daily treated for 5 days after 18 days of tumor implantation measured upto 10 days; assay type: organism-based, CWR22R; settings: in vivo, 120 h, time 5 day

Q: For `CC[C@H](C)[C@@H]([C@@H](CC(=O)N1CCC[C@H]1[C@H](OC)[C@@H](C)C(=O)N[C@H](C)[C@@H](O)c1ccccc1)OC)N(C)C(=O)[C@@H](NC(=O)[C@H](C(C)C)N(C)C(=O)OCc1ccc(NC(=O)[C@H](CCCNC(N)=O)NC(=O)[C@@H](NC(=O)CCCc2cn(CCCNC(=O)[C@H](Cc3ccc(O)cc3)NC(=O)[C@H](Cc3ccccc3)NC(=O)CCC(=O)NCCCCCC(=O)N(CCCC[C@H](NC(=O)N[C@@H](CCC(=O)O)C(=O)O)C(=O)O)Cc3cccc(Cl)c3)nn2)C(C)C)cc1)C(C)C` ({GluureaLys(ε-3-ClBenzyl)-Ahx-Suc}-FY[X1]V[Cit][PABC][NMeV]V[Dil][Dolaproine]-X2), which LD50 [1] is on record?
A: Its LD50 is 4.9 mg/kg and 2.2 µmol/kg.

Q: And the Activity [2]?
A: The Activity was “Toxic”.

Q: What about the Activity [3] of the same compound?
A: Its Activity is “Non-Toxic”.

Q: What about the Activity [4] of the same compound?
A: The Activity was “Non-Toxic”.

Q: And the Activity [5]?
A: The Activity was “Toxic”.
